Read-outs that look alike come from different tables or passages of the source.
Key:
G6PD [1] = biological target: T1, G6PD (Homo sapiens, UniProt P11413); experiment: decrease in G6PD activity in synovial lining cells of human rheumatoid tissue maintained in vitro; type: cell-based; set-up: synovial lining cells of human rheumatoid tissue maintained in vitro; from tissue; host or cells: human rheumatoid synovial tissue (synovial lining cells), maintained in vitro; conditions: mean±SEM
Excerpt: The percentage decreases in […] activity (mean±SEM) in the synovial lining cells of human rheumatoid tissue maintained in vitro, induced by naphthoquinone of formula I (R=H, X=O), including compounds outside the scope of the invention, are given in Table 2.

[2] = redox potential (E1/8) against a standard calomel electrode; type: physicochemical; conditions: for E1/2 (mV): Table 2
[3] = test system: glucose 6-phosphate dehydrogenase (G6PD); experiment: G6PD in synovial lining cells of arthritic rabbits (Example 2); type: in vivo, rabbit
Description: (§1) In each of separate groups of six, rabbits were treated with the same volume of either olive oil alone or dimethoxynaphthoquinone in olive oil for six weeks after the initiation of arthritis (six weeks after challenge). The treatment was 25 mg/kg orally twice a week.
(§2) The rabbits were investigated for the concentration of G6PD, 6PGL and 6PGD in synovial lining cells. The respective mean values (±SEM) for the treatment of olive oil alone were 15.4±1.9, 2.5±0.3 and 8.2±1.1; the results for those treated with dimethoxynaphthoquinone were 7.7±1.2, negligible and 4.6±1.1.

[4] = test system: 6-phosphogluconolactonase (6PGL); experiment: 6PGL in synovial lining cells of arthritic rabbits (Example 2); type: in vivo, rabbit; conditions: 25 mg/kg orally twice a week, six weeks; olive oil alone 2.5±0.3
Description: as §1, §2

[5] = test system: 6-phosphogluconate dehydrogenase (6PGD); experiment: 6PGD in synovial lining cells of arthritic rabbits (Example 2); type: in vivo, rabbit; conditions: 25 mg/kg orally twice a week, six weeks; olive oil alone 8.2±1.1
Description: as §1, §2

[6] = chemical stability and reactivity; type: physicochemical; conditions: no double bond between positions 2 and 3
G6PD [7] = biological target: T1, G6PD; experiment: G6PD activity before and after intra-articular injection in patients with chronic arthritic inflammation; type: in vivo
Description: (§3) Two human patients suffering from chronic arthritic inflammation were given intra-articular injections of menadione bisulphite. The G6PD activity (mean integrated extinction ×10^3 /10 min) and lysosomal latency (% bound activity) were measured before and after injection. The G6PD activity decreased from 423 to 188 in one case and from 245 to 127 in the other; the lysosomal latency increased, respectively from 0 to 13 and from 0 to 31 (normal values are around 40% latency).

lysosomal latency = lysosomal latency before and after intra-articular injection in patients with chronic arthritic inflammation; type: in vivo, human; conditions: before injection 0, normal around 40%
Description: as §3

chronic RA = experiment: therapeutic efficacy by intra-articular injection in chronic RA patients; type: in vivo, human; conditions: intra-articular injections
Excerpt: Other soluble compounds of the invention are menadiol diphosphate, menadiol disulphate and 2-methyl-1,4-naphthohydroquinone bis(hydrogen succinate), sodium salt.

[8] = test system: 6-phosphogluconolactonase (6PGL); experiment: 6PGL activity in synovial lining and desquamating cells of arthritic rabbits treated with menadione epoxide; type: in vivo, rabbit
Description: (§4) Twenty-two female New Zealand white rabbits (initial weight 1.5-2.0 kg) were immunised subcutaneously between the scapulae, with 0.5 ml of complete Freund's adjuvant containing 2.5 mg of ovalbumin (Sigma). A booster inoculation was given two weeks later. Four weeks after this, the right knee was challenged with an intra-articular injection (0.5 ml) of sterile saline containing ovalbumin (10 mg/ml). One week before this; twice a week for the next two weeks; and weekly thereafter, the temperature of both knees was measured on the medial side of the patella by means of a Digi-Sense thermocouple thermometer (Cole-Palmer Instrument Co., Chicago, Ill., U.S.A.). They were skin-tested before challenge to ensure that the cell-mediated immunity was equivalent in the treated and control rabbits. […] They were killed in pairs, treated and untreated, by intravenous injection of phenobarbitone sodium at various intervals from five to nine weeks later. After removal, the synovial tissue was cut into pieces of not greater than 0.5 cm^3; these were immersed for up to 1 min in a 5% solution of polyvinyl alcohol containing 5% CaCl2.2H2 O (Chayen et al, 1973) and then chilled to -70 ° C. in n-hexane (BDH: low in aromatic hydrocarbons grade). The tissue was stored in dry tubes at -70° C. and examined within two weeks. […]

[9] = test system: glucose 6-phosphate dehydrogenase (G6PD); experiment: G6PD activity in synovial lining and desquamating cells of arthritic rabbits treated with menadione epoxide; type: in vivo, rabbit
Description: as §4

challenged joint = experiment: established immune (ovalbumin) arthritis in rabbits, oral menadione epoxide: joint temperature and degree of inflammation; type: in vivo, rabbit (New Zealand white)
Description: Twenty-two female New Zealand white rabbits (initial weight 1.5-2.0 kg) were immunised subcutaneously between the scapulae, with 0.5 ml of complete Freund's adjuvant containing 2.5 mg of ovalbumin (Sigma). A booster inoculation was given two weeks later. Four weeks after this, the right knee was challenged with an intra-articular injection (0.5 ml) of sterile saline containing ovalbumin (10 mg/ml). One week before this; twice a week for the next two weeks; and weekly thereafter, the temperature of both knees was measured on the medial side of the patella by means of a Digi-Sense thermocouple thermometer (Cole-Palmer Instrument Co., Chicago, Ill., U.S.A.). They were skin-tested before challenge to ensure that the cell-mediated immunity was equivalent in the treated and control rabbits. […] They were killed in pairs, treated and untreated, by intravenous injection of phenobarbitone sodium at various intervals from five to nine weeks later. After removal, the synovial tissue was cut into pieces of not greater than 0.5 cm^3; these were immersed for up to 1 min in a 5% solution of polyvinyl alcohol containing 5% CaCl2.2H2 O (Chayen et al, 1973) and then chilled to -70 ° C. in n-hexane (BDH: low in aromatic hydrocarbons grade). The tissue was stored in dry tubes at -70° C. and examined within two weeks.
Sections were cut (10 μm) in a Bright's cryostat (cabinet temperature of -30° C.) with the knife cooled with solid carbon dioxide. The sections were flash-dried on to slides taken from the ambient temperature of the laboratory (Chayen et al, 1973) and stored briefly in a desiccator before being tested for enzymatic activity.
Depending on the amount of tissue, sections were taken from up to fifteen regions of each challenged joint and stained with 0.1% toluidine blue in 0.1M acetate buffer, pH 6.1. They were assessed for thickening of the synovial lining cell layer; degree of infiltration by both chronic and acute inflammatory cells; and fibrosis. Each of these criteria was evaluated on a scale that ranged from 0 to ++. A value based on all these criteria was given for the response in each challenged joint and the degree of inflammation of the whole joint was assessed on an arbitrary scale of - to ++.

immune arthritis = conditions: rabbits fed by gavage, cited from earlier work
solubility = type: physicochemical
neotetrazolium chloride = conditions: sections of various tissues; compared with phenazine methosulphate; cited from earlier work

T1 sequence (P11413 2-515 limits assumed): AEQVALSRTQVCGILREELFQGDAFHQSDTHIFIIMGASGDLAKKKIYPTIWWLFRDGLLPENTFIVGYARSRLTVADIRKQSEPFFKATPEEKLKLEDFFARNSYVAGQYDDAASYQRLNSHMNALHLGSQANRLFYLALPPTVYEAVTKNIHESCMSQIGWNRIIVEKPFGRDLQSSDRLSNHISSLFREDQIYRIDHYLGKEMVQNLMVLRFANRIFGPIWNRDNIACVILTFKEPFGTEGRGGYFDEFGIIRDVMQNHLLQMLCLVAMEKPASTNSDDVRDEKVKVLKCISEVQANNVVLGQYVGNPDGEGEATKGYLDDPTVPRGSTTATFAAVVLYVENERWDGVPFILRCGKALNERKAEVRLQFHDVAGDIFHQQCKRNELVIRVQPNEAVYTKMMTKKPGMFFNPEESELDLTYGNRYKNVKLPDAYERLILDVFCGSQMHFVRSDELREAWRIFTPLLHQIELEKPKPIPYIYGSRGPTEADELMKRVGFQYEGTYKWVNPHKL

With `CC1=C(SC[C@H](NC(=O)CC[C@H](N)C(=O)O)C(=O)NCC(=O)O)C(=O)c2ccccc2C1=O` [3-glutathionylmenadione, reference compound] the “% decrease in G6PD” value (G6PD [1]) was 37 ± 13.0% and the “E1/2 (mV)” value [2] was -170 mV.
In the case of `CC1=C(SCCC(N)C(=O)O)C(=O)c2ccccc2C1=O` (centres unmarked) [3-homocysteinylmenadione, reference compound], the “% decrease in G6PD” value (G6PD [1]) is reported as 25 ± 9.7% and the “E1/2 (mV)” value [2] is reported as -190 mV.
With `COC1=C(OC)C(=O)c2ccccc2C1=O` [dimethoxynaphthoquinone, 2,3-dimethoxy-1,4-naphthoquinone] the “concentration of G6PD in synovial lining cells (mean ±SEM)” value ([3]; 25 mg/kg orally twice a week, six weeks, olive oil alone 15.4±1.9) was 7.7±1.2, the “effect on all three enzyme activities: G6PD” value ([3]; summary in words for G6PD, 6PGL and 6PGD) was “greatly reduced” and the “% decrease in G6PD” value (G6PD [1]) was 49 ± 14.0%. For the same molecule, the “E1/2 (mV)” value [2] was -250 mV, the “concentration of 6PGL in synovial lining cells (mean ±SEM)” value [4] was “negligible” and the “concentration of 6PGD in synovial lining cells (mean ±SEM)” value [5] was 4.6±1.1.
In the case of `CC1=C(C)C(=O)c2ccccc2C1=O` [dimethylnaphthoquinone, 2,3-dimethyl-1,4-naphthoquinone], the “% decrease in G6PD” value (G6PD [1]) is reported as 61% and the “E1/2 (mV)” value [2] is reported as -290 mV.
For `CC1(S(=O)(=O)O)CC(=O)c2ccccc2C1=O` (centres unmarked) [menadione bisulphite, 2-methyl-l,4-dioxotetralin-sulphonate], the reactivity with thiols [6] was “unreactive”, the “G6PD activity after injection” value (G6PD [7]; first patient, before injection 423) was 188 mean integrated extinction ×10^3 /10 min and the “G6PD activity after injection” value (G6PD [7]; second patient, before injection 245) was 127 mean integrated extinction ×10^3 /10 min. The “lysosomal latency after injection” value (lysosomal latency; first patient) was 13 % bound activity, the “lysosomal latency after injection” value (lysosomal latency; second patient) was 31 % bound activity and the “redox potential (E1/8) measured in human plasma” value ([2]; human plasma) was -640 mV. For the same molecule, the “redox potential compared with menadione” value ([2]; versus menadione) was “higher redox potential than menadione” and the therapeutic efficacy (chronic RA) was “demonstrated”.
In the case of `CC12OC1C(=O)c1ccccc1C2=O` (centres unmarked) [menadione epoxide], the “6PGL activity in the desquamating cells” value ([8]; desquamating cells, despite very elevated G6PD) is reported as “no equivalent increase”, the “effect on 6PGL activity” value ([8]; synovial lining cells) is reported as “decrease both activities towards normal levels” and the “G6PD activity in the desquamating cells” value ([9]; desquamating cells, as against 25.5 units in "rheumatoid" intact lining cells and 6 units in normal joints) is reported as 45.7 units. For the same molecule, the “effect on G6PD activity” value ([9]; synovial lining cells) was “decrease both activities towards normal levels”, the “median overall difference in temperature expressed per day (group)” value (challenged joint; from two weeks after treatment until killed, control median 0.589 (0.308 to 0.687), p=0.04) was 0.096 °C day and the “overall degree of inflammation in the challenged joint” value (challenged joint; one of the twelve treated rabbits (totally negative)) was “-”. The “overall difference in temperature between challenged and unchallenged knees, expressed per day (single rabbit)” value (challenged joint; one treated rabbit, from two weeks after start of treatment until killed, 25 mg/kg bi-weekly by gavage, control rabbit 0.7110) was 0.096 °C and the “inflammation assessed by temperature in vivo, visual inspection post mortem and histological examination” value (challenged joint; oral administration, established chronic inflammation) was “marked decrease in the inflammation”.
In the case of `CC1=CC(=O)c2ccccc2C1=O` [menadione, 2-methyl-1,4-naphthoquinone], the “chronic inflammation assessed histologically and by enzyme activity in synovial lining cells” value (immune arthritis; versus control animals) is listed as “marked diminution”, the “effect on immune arthritis” value (immune arthritis) is listed as “significantly ameliorates” and the “effect on immune arthritis” value (immune arthritis; listed as Menadione) is listed as “effective”. The “% decrease in G6PD” value (G6PD [1]) was 38 ± 6.9%, the “E1/2 (mV)” value [2] was -220 mV and the “redox potential (E1/8)” value ([2]; recorded against a standard calomel electrode, 90% ethanol-0.005M acetate buffer pH 4.0) was -220 mV. The solubility (solubility) was “lipid soluble” and the “transfer of reducing equivalents to neotetrazolium chloride” value (neotetrazolium chloride) was “as effective as phenazine methosulphate”.
In the case of `CC1=C(O)C(=O)c2ccccc2C1=O` [phthiocol], the “% decrease in G6PD” value (G6PD [1]) is reported as 47 ± 11.5% and the “E1/2 (mV)” value [2] is reported as -355 mV.

From US5763479A, “Naphthoquinone derivatives for the treatment of chronic inflammation” (KS Biomedix Ltd., priority 1991, dated 1998)
